In US12344611B2, “Bridged cycloformylpyridine derivatives and uses thereof” (BroadenBio Co., Ltd., priority 2019, dated 2025):

What was measured:
[1] = target: FGFR4 (Homo sapiens, UniProt P22455); assay: In vitro biochemical kinase analysis of FGFR4 (HTRF KinEASE-TK); details: HTRF kinase assay
Procedure: In Vitro Biochemical Kinase Analysis of FGFR4
FGFR4 protein kinase detection kit was purchased from Cisbio (HTRF KinEASE-TK kit). Prepare 1× kinase reaction buffer. Transfer 10 nL of a diluted compound to each well of a reaction plate (784075, Greiner) with an Echo 550, and seal the plate with sealing film. The reaction plate was centrifuged at 1000 g for 1 minute. Prepare 2×FGFR4 using 1× kinase reaction buffer, add 5 μL of kinase to each well of the reaction plate, seal the plate, centrifuge at 1000 g for 30 seconds, and incubate it at room temperature for 10 minutes. Prepare a mixture of 2×TK-substrate-biotin and ATP using 1× kinase reaction buffer, add 5 μL of TK-substrate-biotin/ATP mixture to the reaction plate, seal the plate with sealing film, centrifuge at 1000 g for 30 seconds, and react at room temperature for 40 minutes. Prepare 2×Sa-XL 665 and TK-antibody-Cryptate mixture using HTRF detection buffer, add 10 μL Sa-XL 665 and TK-antibody-Cryptate mixture to each well, centrifuge at 1000 g for 30 seconds, and react at room temperature for 1 hour. Envision 2104 read fluorescence signals at 615 nm (Cryptate) and at 665 nm (XL665). IC50 of the compound was calculated using the GraphPad nonlinear fitting formula.

[2] = system: Hep 3B hepatoma cells; assay: In vitro cell proliferation assay (CellTiter-Glo, CTG), Hep 3B; type: cell-based, human; details: Hep 3B cells
Procedure: (§1) In Vitro Cell Proliferation Assay of FGFR4 (CellTiter-Glo Luminescent Cell Viability Assay, CTG Assay)
(§2) Hep 3B hepatoma cells were purchased from Cell Resource Center of Peking Union College, and HuH-7 hepatoma cells were purchased from Shanghai Biological Technology Co., Ltd. enzyme research. The cells were prepared at a concentration of 3×10^4/mL, which was then added with 100 μL to each well of a 96-well transparent flat-bottom black-walled plate to make 3000 cells per well. Incubate overnight at 37° C. in 5% CO2 incubator. Dilute a compound and add it to the wells having the cells, then add cell culture medium to 200 μL per well. Put in CO2 incubator for incubation. After 96 hours, 100 μL of culture medium was removed from each well, 100 μL of CTG was added, and the 96-well plate was placed on a shaker for 10 minutes, and placed in the shade at room temperature for 45 minutes. Data was read out by SoftMax Pro i3X Microplate Reader of MD, analyzed by the software GraphPad Prism 5.0, and S-shaped dose-response curve was drawn, then the EC50 values were calculated.

[3] = system: HuH-7 hepatoma cells; assay: In vitro cell proliferation assay (CellTiter-Glo, CTG), HuH-7; type: cell-based; details: HuH-7 cells
Procedure: as §1, §2

Chain of FGFR4 (P22455 22-802): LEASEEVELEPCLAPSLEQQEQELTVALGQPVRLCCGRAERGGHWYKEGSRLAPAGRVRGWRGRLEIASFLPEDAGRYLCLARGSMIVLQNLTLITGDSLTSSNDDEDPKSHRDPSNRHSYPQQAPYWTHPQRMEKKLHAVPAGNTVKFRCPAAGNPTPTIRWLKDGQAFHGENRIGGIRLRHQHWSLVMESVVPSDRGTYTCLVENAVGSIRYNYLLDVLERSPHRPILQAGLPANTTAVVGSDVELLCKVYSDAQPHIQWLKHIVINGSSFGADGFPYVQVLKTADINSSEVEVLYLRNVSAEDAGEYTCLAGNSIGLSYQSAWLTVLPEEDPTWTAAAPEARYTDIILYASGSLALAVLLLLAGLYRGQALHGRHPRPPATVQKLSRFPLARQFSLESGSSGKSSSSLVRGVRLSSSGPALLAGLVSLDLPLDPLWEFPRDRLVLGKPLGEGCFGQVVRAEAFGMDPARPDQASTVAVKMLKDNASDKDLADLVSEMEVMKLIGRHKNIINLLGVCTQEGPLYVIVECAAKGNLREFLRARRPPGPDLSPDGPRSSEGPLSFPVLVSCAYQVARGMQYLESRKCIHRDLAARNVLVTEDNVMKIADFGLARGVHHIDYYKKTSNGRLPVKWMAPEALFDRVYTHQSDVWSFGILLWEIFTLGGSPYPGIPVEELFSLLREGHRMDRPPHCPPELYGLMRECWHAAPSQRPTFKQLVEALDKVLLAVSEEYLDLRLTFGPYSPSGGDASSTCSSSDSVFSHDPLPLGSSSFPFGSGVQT

Structure (SMILES) | IC50 [1] | EC50 ([2]; 96 hours) | EC50 ([3]; 96 hours) | EC50 ([2]; Homo sapiens, Hep3B, 96 h) | EC50 ([3]; Homo sapiens, Huh-7, 96 h)
COC1CCCC1Nc1cc(NC(=O)N2c3nc(C=O)c(CN4CCN(C)CC4=O)cc3C3(F)CC2C3)ncc1C#N (single isomer, unassigned) [Compound 12-P2, N-(5-cyano-4-(((cis)-2-methoxycyclopentyl)amino)pyridin-2-yl)-4-fluoro-7-formyl-64(4-methyl-2-oxopiperazin-1-yl)methyl)-3,4-dihydro-2,4-methylene-1,8-naphthyridine-1(2H)-carboxamide] | 10.9 nM | 39 nM | 95.2 nM |  | 
COCCNc1cc(NC(=O)N2c3nc(C=O)ccc3C3(F)CC2C3)ncc1C#N [Compound 1, N-(5-cyano-4-((2-methoxyethyl)amino)pyridin-2-yl)-4-fluoro-7-formyl-3,4-dihydro-2,4-methylene-1,8-naphthyridine-1(2H)-carboxamide] | 0.4 nM |  |  | 15.1 nM | 62 nM
COCCNc1cc(NC(=O)N2c3nc(C=O)ccc3C3(O)CC2C3)ncc1C#N [Compound 2, N-(5-cyano-4-((2-methoxyethyl)amino)pyridin-2-yl)-7-formyl-4-hydroxy-3,4-dihydro-2,4-methylene-1,8-naphthyridine-1(2H)-carboxamide] | 2.2 nM |  |  | 8.1 nM | 52 nM
COCCNc1cc(NC(=O)N2c3nc(C=O)ccc3C3(OC)CC2C3)ncc1C#N [Compound 3] | 1.6 nM |  |  | 13.4 nM | 42 nM
COCCNc1cc(NC(=O)N2c3nc(C=O)c(CN4CCN(C)CC4=O)cc3C3(O)CC2C3)ncc1C#N [Compound 5, N-(5-cyano-4-((2-methoxyethyl)amino)pyridin-2-yl)-7-formyl-4-hydroxy-6-((4-methyl-2-oxopiperazin-1-yl)methyl)-3,4-dihydro-2,4-methylene-1,8-naphthyridine-1(2H)-carboxamide] | 1.8 nM |  |  | 27 nM | 49 nM
COC[C@@H](C)Nc1cc(NC(=O)N2c3nc(C=O)c(CN4CCN(C)CC4=O)cc3C3(F)CC2C3)ncc1C#N [Compound 6, (R)—N-(5-cyano-4-((1-methoxyprop-2-yl)amino)pyridin-2-yl)-4-fluoro-7-formyl-6-((4-methyl-2-oxopiperazin-1-yl)methyl)-3,4-dihydro-2,4-methylene-1,8-naphthyridine-1(2H)-carboxamide] | 2.1 nM |  |  | 3.3 nM | 5.9 nM
COCCNc1cc(NC(=O)N2c3nc(C=O)c(CN4CCN(C)CC4)cc3C3(F)CC2C3)ncc1C#N [Compound 7] | 5.1 nM |  |  | 669 nM | > 1000 nM
COCCNc1cc(NC(=O)N2c3nc(C=O)c(CN(C)C(=O)CN(C)C)cc3C3(F)CC2C3)ncc1C#N [Compound 8] | 2.6 nM |  |  | 11.8 nM | 28 nM
COCCOc1cc(NC(=O)N2c3nc(C=O)c(CN4CCN(C)CC4=O)cc3C3(F)CC2C3)ncc1C#N [Compound 9] | 4.9 nM |  |  | 58 nM | 71 nM
CN1CCN(Cc2cc3c(nc2C=O)N(C(=O)Nc2cc(NC4CCOC4)c(C#N)cn2)C2CC3(F)C2)C(=O)C1 (stereo not drawn) [Compound 10, N-(5-cyano-4-((tetrahydrofuran-3-yl)amino)pyridin-2-yl)-4-fluoro-7-formyl-6-((4-methyl-2-oxopiperazin-1-yl)methyl)-3,4-dihydro-2,4-methylene-1,8-naphthyridine-1(2H)-carboxamide] | 3.8 nM |  |  | 10 nM | 20 nM
COCCNc1cc(NC(=O)N2c3nc(C=O)c(CN4CCOCC4=O)cc3C3(F)CC2C3)ncc1C#N [Compound 13] | 6.9 nM |  |  | 12.6 nM | 74 nM
COCCNc1cc(NC(=O)N2c3nc(C=O)c(CN4CCCCOC4=O)cc3C3(F)CC2C3)ncc1C#N [Compound 14] | 3.3 nM |  |  | 7.8 nM | 28 nM
CN1CCN(Cc2cc3c(nc2C=O)N(C(=O)Nc2ccc(C(F)(F)F)cn2)C2CC3(F)C2)C(=O)C1 [Compound 16, N-(5-(trifluoromethyl)pyridin-2-yl)-4-fluoro-7-formyl-6-((4-methyl-2-oxopiperazin-1-yl)methyl)-3,4-dihydro-2,4-methylene-1,8-naphthyridine-1(2H)-carboxamide] | 23.2 nM |  |  | 638 nM | > 1000 nM
COCCNc1cc(NC(=O)N2c3nc(C=O)c(CN4CCN(C)CC4=O)cc3C3CC2C3)ncc1C#N [Compound 18, N-(5-cyano-4-((2-methoxyethyl)amino)pyridin-2-yl)-7-formyl-6-((4-methyl-2-oxopiperazin-1-yl)methyl)-3,4-dihydro-2,4-methylene-1,8-naphthyridine-1(2H)-carboxamide] | 2.5 nM |  |  | 5.6 nM | 15.1 nM
CCc1cc2c(nc1C=O)N(C(=O)Nc1cc(NCCOC)c(C#N)cn1)C1CC2(F)C1 [Compound 21] | 2.1 nM |  |  | 15.8 nM | 28.4 nM
COCCOCCNc1cc(NC(=O)N2c3nc(C=O)ccc3C3(OC)CC2C3)ncc1C#N [Compound 22, N-(5-cyano-4-((2-(2-methoxyethoxy)ethyl)amino)pyridin-2-yl)-7-formyl-4-methoxy-3,4-dihydro-2,4-methylene-1,8-naphthyridine-1(2H)-carboxamide] | 4.7 nM |  |  | 125 nM | 125 nM
COC[C@@H](C)Nc1cc(NC(=O)N2c3nc(C=O)c(CN4CCN(C)CC4=O)cc3C3CC2C3)ncc1C#N [Compound 24] | 0.6 nM |  |  | 1.4 nM | 1.7 nM
COCCOc1cc(NC(=O)N2c3nc(C=O)c(CN4CCN(C)CC4=O)cc3C3CC2C3)ncc1C#N [Compound 25, N-(5-cyano-4-(methoxyethoxy)pyridin-2-yl)-7-formyl-6-((4-methyl-2-oxopiperazin-1-yl)methyl)-3,4-dihydro-2,4-methylene-1,8-naphthyridine-1(2H)-carboxamide] | 2.5 nM |  |  | 19.3 nM | 25.4 nM
COCCNc1cc(NC(=O)N2c3nc(C=O)c(CN4CCOCC4=O)cc3C3CC2C3)ncc1C#N [Compound 27, N-(5-cyano-4-((2-methoxyethyl)amino)pyridin-2-yl)-7-formyl-6-((3-oxomorpholinyl)methyl)-3,4-dihydro-2,4-methylene-1,8-naphthyridine-1(2H)-carboxamide] | 1.4 nM |  |  | 6.7 nM | 9.7 nM
COCCNc1cc(NC(=O)N2c3nc(C=O)c(CN4CCCCOC4=O)cc3C3CC2C3)ncc1C#N [Compound 28] | 1.1 nM |  |  | 7.2 nM | 6.9 nM
COCCNc1cc(NC(=O)N2c3nc(C=O)ccc3C3(OCCN(C)C)CC2C3)ncc1C#N [Compound 29, N-(5-cyano-4-((2-methoxyethyl)amino)pyridin-2-yl)-4-(2-(dimethylamino)ethoxy)-7-formyl-3,4-dihydro-2,4-methylene-1,8-naphthyridine-1(2H)-carboxamide] | 1.1 nM |  |  | 1.2 nM | 0.2 nM
COCCNc1cc(NC(=O)N2c3nc(C=O)ccc3C3(NC(=O)C4CCN(C)CC4)CC2C3)ncc1C#N [Compound 31] | 1.1 nM |  |  | 5.5 nM | 4.5 nM
COCCNc1cc(NC(=O)N2c3nc(C=O)ccc3C3(NC(=O)c4cnn(C)c4)CC2C3)ncc1C#N [Compound 32, N-(5-cyano-4-((2-methoxyethyl)amino)pyridin-2-yl)-4-(1-methyl-1H-pyrazole-4-carboxamido)-7-formyl-3,4-dihydro-2,4-methylene-1,8-naphthyridine-1(2H)-carboxamide] | 0.5 nM |  |  | 1.7 nM | 0.7 nM
COCCNc1cc(NC(=O)N2c3nc(C=O)ccc3C3(OCCOC)CC2C3)ncc1C#N [Compound 36, N-(5-cyano-4-((2-methoxyethyl)amino)pyridin-2-yl)-4-(2-methoxyethoxy)-7-formyl-3,4-dihydro-2,4-methylene-1,8-naphthyridine-1(2H)-carboxamide] | 2.5 nM |  |  | 8.5 nM | 11.8 nM
CCS(=O)(=O)NC12CC(C1)N(C(=O)Nc1cc(NCCOC)c(C#N)cn1)c1nc(C=O)ccc12 [Compound 38, N-(5-cyano-4-((2-methoxyethyl)amino)pyridin-2-yl)-4-ethanesulfonamido-7-formyl-3,4-dihydro-2,4-methylene-1,8-naphthyridine-1(2H)-carboxamide] | 2.3 nM |  |  | 9.5 nM | 19.2 nM
COCCNc1cc(NC(=O)N2c3nc(C=O)ccc3C3(OCCN4CCOCC4)CC2C3)ncc1C#N [Compound 39] | 1.6 nM |  |  | 7.8 nM | 10 nM
